From patent US20250312349A1, “COMPOSITION AND METHODS OF TREATING INTRACELLULAR PATHOGEN INFECTION” (UNIVERSITY HOSPITALS CLEVELAND MEDICAL CENTER, priority 2024, published 2025)

Experiments:
CHO cells = assay: MTT assay of potential cell toxicity, CHO cells; assay type: cell-based, Chinese Hamster; conditions: 1 μM, 24 hrs
Protocol: FIG. 9 illustrates graphs showing the assessment of potential cell toxicity of Saracatinib. CHO cells and retinal pigment epithelial cells (RPE) were treated with various concentrations of Saracatinib (1 nM-1000 μM) followed by MTT assay 24 hrs. after incubation with Saracatinib. The data are pooled from duplicate or triplicate independent samples obtained in 3 different experiments. […] Data are shown as mean±SEM. Significance was determined by comparing all groups to the control using one-way ANOVA with Holm-Sidak multiple comparison test (*p<0.05). (PDF)

phospho-S473 Akt = assay: Confocal microscopy of phospho-S473 Akt accumulation around parasites in CHO cells; assay type: cell-based, Chinese Hamster; conditions: RFP-T. gondii
Protocol: Mammalian cells were infected with RFP-T. gondii (RH) and fixed with 4% paraformaldehyde. Cells were stained with antibodies against LC3 (MBL International, Woburn, MA), LAMP1 (DSHB, Iowa City, IA), or GRA7 (gift from John Boothroyd, Stanford University, Stanford, CA) followed by a fluorescently conjugated secondary antibodies (Jackson ImmunoResearch Laboratories, West Grove, PA). LC3 and LAMP1 were evaluated for accumulation at 5- and 7 hours post-infection, respectively. Cells were stained with antibodies against PTEN (Santa Cruz Biotechnology, Dallas, TX) or anti-phospho S473 Akt (Novus, Centennial, CO). Frozen brain sections were stained with antibodies against PTEN (Novus, Centennial, CO), phospho S473 Akt, SAG-1 (Invitrogen, Waltham, MA) or T. gondii (Biogenex, Fremont, CA). Parasites were evaluated blindly in multiple random fields of view and 100 parasites were examined per group. In-out assays were performed as described using RFP-T gondii, anti-SAG-1 antibody (Invitrogen, Waltham, MA) and an Alexa Fluor 488-conjugated secondary antibody. Olympus FV1200 confocal microscope (Evident/Olympus, Waltham, MA) equipped with UPlanSApa 60× and 100× 1.45NA objectives was used to evaluate the slides.

Akt = assay: Immunoblot of phospho-S473 Akt in T. gondii-infected CHO cells; assay type: cell-based, Chinese Hamster; conditions: lysates at 2 h
Protocol: FIGS. 4(A-C) illustrate Src inhibition induces T. gondii killing by impairing Akt activation. (A) CHO cells were challenged with RH-T. gondii. Cell lysates collected at 2 h were probed for Akt and phospho-S473 Akt. Relative density of phospho-Akt was normalized to total Akt and compared to the uninfected sample. Densitometry graph shown as mean±SEM from 3 independent experiments. (B-C) CHO cells or primary brain endothelial cells were transfected with plasmids encoding HA-tagged CA- or HA-tagged WT-Akt. Lysates were probed for actin, HA, Akt and phospho-S473 Akt. Cells were challenged with T. gondii and treated with Saracatinib (1 μM). Cell lysates collected at 2 h were probed for Akt and phospho-S473 Akt. Relative density of phospho-Akt and densitometries were examined as above. Percentages of infected cells and tachyzoites per 100 cells were assessed at 24 h. Data are shown as mean±SEM. The graphs show data from 6 independent monolayers pooled from 3 different experiments. Data points are shown as circles, triangles, or squares corresponding to individual monolayers within each experiment. […]

ME49 T. gondii [1] = assay: Pre-established ocular and cerebral toxoplasmosis in B6 mice, 4 weeks of treatment; assay type: in vivo, C57BL/6 mice; conditions: four weeks
Text: Results are representative of 2 independent experiments.
Brains and eyes were fixed in 10% formalin before paraffin embedding. Hematoxylin & eosin (H&E) and periodic acid Schiff hematoxylin (P.A.S.H) were used to stain sections from eyes and brains respectively. Brain and ocular histopathology were scored as described previously.

T. gondii = assay: In-out assay of parasite invasion of host cells (SAG1 staining); assay type: cell-based, Toxoplasma gondii; conditions: CHO cells, 1 μM, RH-RFP T. gondii, 2 hours
Protocol: (A) CHO cells were treated with Saracatinib (1 μM) and infected with RH-RFP T. gondii for 2 hours. Cells were fixed with Paraformaldehyde (PFA) and were not permeabilized prior to staining with a tachyzoite marker, SAG1. […] will express red fluorescence while extracellular parasites stain for SAG1 and appear green or yellow in color. Data are shown as mean±SEM. The graphs show data from 7 independent monolayers pooled from 2 different experiments. (B) CHO cells were treated with Saracatinib (1 μM) and infected with RH-RFP T. gondii for 24 hours. Number of tachyzoites per vacuole were determined by light microscopy and quantified as percentage of total vacuoles. Data are shown as mean±SEM. The graphs show data from 6 independent monolayers pooled from 3 different experiments. […] (PDF)
Mammalian cells were infected with RFP-T. gondii (RH) and fixed with 4% paraformaldehyde. Cells were stained with antibodies against LC3 (MBL International, Woburn, MA), LAMP1 (DSHB, Iowa City, IA), or GRA7 (gift from John Boothroyd, Stanford University, Stanford, CA) followed by a fluorescently conjugated secondary antibodies (Jackson ImmunoResearch Laboratories, West Grove, PA). LC3 and LAMP1 were evaluated for accumulation at 5- and 7 hours post-infection, respectively. […] Parasites were evaluated blindly in multiple random fields of view and 100 parasites were examined per group. […]

ME49 T. gondii [2] = assay: Suboptimal dose combination in mice with ocular and cerebral toxoplasmosis; assay type: in vivo, C57BL/6 mice; conditions: 2.5 mg/Kg once a day, 14 days
Protocol: C57BL/6 mice that had been infected with tissue cysts of ME49 T. gondii for 4 weeks (at a time when animals have developed ocular and cerebral toxoplasmosis), were treated with suboptimal dose of Saracatinib (2.5 mg/Kg once a day) with or without suboptimal dose of Pyrimethamine (4.2 mg/Kg once a day) for 14 days.

Lek and Fyn in T cells = conditions: cited from earlier work
EGS T. gondii cysts = assay: Parasite cysts in CHO cells infected with EGS T. gondii; assay type: cell-based, Toxoplasma gondii; conditions: Saracatinib 1 μM, 4 days
Text: We infected CHO cells with EGS T. gondii, a strain of the parasite that spontaneously form cysts in vitro.

[3] = test system: retinal pigment epithelial cells (RPE); assay: MTT assay of potential cell toxicity, RPE cells; assay type: cell-based, human; conditions: 1 μM, 24 hrs
Protocol: Data are shown as mean±SEM. […] Three independent experiments were performed.

ME49 T. gondii [4] = assay: Ocular and cerebral toxoplasmosis in Becn1+/+ and Becn1+/- mice; assay type: in vivo; conditions: 10 mg kg-1, 2 weeks
[5] = 10 or 15 mg kg^-1 oral gavage twice per day

SMILES: CN1CCN(CCOc2cc(OC3CCOCC3)c3c(Nc4c(Cl)ccc5c4OCO5)ncnc3c2)CC1 [Saracatinib, N-(5-chloro-1,3-benzodioxol-4-yl)-7-(2-(4-methylpiperazin-1-yl)ethoxy)-5-(tetrahydro-2H-pyran-4-yloxy)quinazolin-4-amine]
- cell toxicity (MTT) (CHO cells): non-toxic
- accumulation of phospho-S473 Akt around intracellular parasites (phospho-S473 Akt): inhibited
- T. gondii-induced phosphorylation of Akt at Ser473 (Akt): abrogated
- mice with no significant ocular inflammation (ME49 T. gondii [1]; 15 mg kg^-1 twice per day): 75%
- perivascular and diffuse inflammation in the brains (ME49 T. gondii [1]; 15 mg kg^-1 twice per day): No significant perivascular and diffuse inflammation were detected
- histopathology in eye and brain (ME49 T. gondii [1]; [5]): marked reduction
- parasite load in the eye and brain (ME49 T. gondii [1]; [5]): profound reduction
- parasite invasion of host cells (T. gondii): did not affect
- load of tissue cysts (ME49 T. gondii [2]): neither the low dose Saracatinib nor the low dose Pyrimethamine decreased
- activity of Lek and Fyn in T cells (Lek and Fyn in T cells): did not inhibit
- T cell expansion and IFN-γ production following antigenic stimulation (Lek and Fyn in T cells; low doses, previously primed T cells, in vitro and in vivo): increased T cell expansion and IFN-γ production
- morphology of bradyzoites in remaining cysts (EGS T. gondii cysts): altered morphology
- reduction in the number of cysts (EGS T. gondii cysts): ~60%
- cell toxicity (MTT) [3]: non-toxic
- ocular and cerebral histopathology (ME49 T. gondii [4]; Becn 1+/+ mice): improvement
- parasite load (ME49 T. gondii [4]; Becn 1+/+ mice): improvement
- response of histopathology and parasite loads (ME49 T. gondii [4]; autophagy-deficient Becn 1+/- mice): did not respond
